In assay [1] the test system is A. thaliana (Col-0) plant. The format is in vivo, Arabidopsis thaliana. The conditions noted are these: for Decrease in primary root length: vs PNS. From the text: The effect treating a plant with a composition comprising a synthetic amphiphile on root morphology or other physical characteristics or attributes can be quantitated. For example, a change in primary root length can be determined by measuring the difference, if any, in primary root length of a plant treated with the composition compared to the average of a control sample of plants of the same type grown under identical conditions in the absence of the composition. A change in lateral root density can be determined by comparing the lateral root density of a plant treated with the composition to the average lateral root density of a sample grown under identical conditions in the absence of the composition. Lateral root density can be determined by dividing the number of lateral roots by the length of the primary root. In certain embodiments for any quantitated characteristic or attribute, the average value of the control is the average of a statistically significant population of control plants. For example, in certain illustrative embodiments disclosed herein, three trials of about 20 plants each were used to determine the average of the control.
Illustrative of certain embodiments, approximately 60 plants were grown on PNS media (no additives) and root lengths and the number of lateral roots were recorded for each. The data points were averaged to obtain the following baseline values: primary root length=40.4±3.8 mm and number of lateral roots=6.1±0.8, respectively. The lateral root density was obtained by dividing the number of lateral roots by the length (in mm) of the primary root. The control value was (6.1/[…]=) 0.15.
Test compounds were added to the growth medium as 0.2% by volume DMSO. […]
To make 500 mL PN media, 485 mL doubly distilled (“dd”) H2O was first added to an autoclave beaker. The following salts and nutrients were added to a beaker and mixed well: 5 mL of 250 mM of KPO4 (pH 5.5), 2.5 mL of 1M KNO3, 1 mL of 1M MgSO4, 1 mL of 1M Ca(NO3)2, 0.5 mL of Ferric EDTA (1000× or 49 mM) and 0.5 mL of Micronutrients (1000×). In a 1 L autoclaved bottle, 0.6% (3 g) of bacteriological agar was added, followed by 500 mL solution prepared above. The media was autoclaved using the Liquid-30 program.
PNS plates were used for plating sterile Arabidopsis thaliana (Columbia-0) seeds. A sterile stock of PNS agar was maintained. Sterile sucrose was added to PN media to make PNS media. To make PNS media containing 0.5% sucrose, 5 mL of 50% sucrose (sterile filtered) was added to 500 mL of PN agar and mixed well.
The stored PNS media was liquefied using a water bath and allowed to cool to 55° C. The type of plates, compounds, and concentrations to be used were confirmed while the media cooled. The plates were labeled on the cover and the bottom with all the relevant information. 50 mL sterile centrifuge tubes were used to measure 29,940 μL (29.94 mL) PNS media. A fresh sterile 50 mL tube was used for each plate. The desired amount and concentration of compound was added to the PNS media, mixed by inverting the tube and poured in the plate. Total volume of media and compound in each plate was kept constant at 30 mL. A maximum of 60 μL (0.2% by volume) compound was added per plate. For example: 60 μL of 25 mM compound was added to 29.94 mL PNS media to get final concentration of 50 μM compound in PNS media. Plates were incubated at room temperature for 2 hours before plating seeds on them.
Hands and bench area were washed thoroughly before beginning. Sterilizing solution was prepared in a sterile 15 mL centrifuge tube, by mixing 5 mL of 30% bleach and 5 μL of 10% Triton X-100. A. thaliana Col-0 seeds were added to sterile 1.5 mL micro-centrifuge tube. 500 μL of sterilizing solution (30% bleach+0.01% Triton X-100) was added to the seeds, vortexed for 3 seconds and incubated at room temperature for 8 minutes. After 8 minutes, bleach was removed and 1 mL autoclaved MilliQ water was added. […]

The conditions of assay [2]: study of hydraphiles having various chain lengths; cited from earlier work.

Where two headings read alike, the source gives them in different places. * marks the point of attachment. (CH3(CH2)17)2NCOCH2OCH2CO = CCCCCCCCCCCCCCCCCCN(CCCCCCCCCCCCCCCCCC)C(=O)COCC(=O)*; (C12H25)2NCOCH2CH2CO = CCCCCCCCCCCCN(CCCCCCCCCCCC)C(=O)CCC(=O)*; (C12)2NCOCH2CH2CO = CCCCCCCCCCCCN(CCCCCCCCCCCC)C(=O)CCC(=O)*; OC7 = heptyl ester (C-terminal), CCCCCCCO*; O(CH2)6CH3 = CCCCCCCO*; OC7H15 = CCCCCCCO*

In the case of `c1ccc(CN2CCOCCOCCN(CCCCCCCCN3CCOCCOCCN(CCCCCCCCN4CCOCCOCCN(Cc5ccccc5)CCOCCOCC4)CCOCCOCC3)CCOCCOCC2)cc1` [C8 hydraphile (1)], the Primary root length is 34 ± 7 mm in assay [1] (hydraphile 20 μM in PNS media); 34±7 mm in assay [1] (hydraphile 20 μM in PNS media, listed as C8 benzyl hydraphile (compound 1)); 31 ± 6 mm in assay [1] (hydraphile 50 μM in PNS media); 31±6 mm in assay [1] (hydraphile 50 μM in PNS media, listed as C8 benzyl hydraphile (compound 1)). Further, the figures for the “Decrease in primary root length” value in assay [1] (hydraphile 20 μM) and in assay [1] (hydraphile 50 μM) were 9% and 19%, respectively. Also, the Lateral root density in assay [1] (hydraphile 20 μM, lateral roots divided by primary root length) came out at 0.15±0.01; in assay [1] (hydraphile 50 μM, lateral roots divided by primary root length), 0.18±0.03. Also, the “Sodium cation conduction” value in assay [2] is listed as “did not conduct sodium cation efficiently”.
With `c1ccc(CN2CCOCCOCCN(CCCCCCCCCCCCCCCCN3CCOCCOCCN(CCCCCCCCCCCCCCCCN4CCOCCOCCN(Cc5ccccc5)CCOCCOCC4)CCOCCOCC3)CCOCCOCC2)cc1` [C16 hydraphile (3)], the Primary root length in assay [1] (hydraphile 10 μM in PNS media) was 23 ± 0.4 mm; in assay [1] (hydraphile 10 μM in PNS media, listed as compound 3) it was 23±0.4 mm; in assay [1] (hydraphile 20 μM in PNS media), 15 ± 0.5 mm; in assay [1] (hydraphile 20 μM in PNS media, listed as compound 3) it was 15±0.5 mm; in assay [1] (hydraphile 50 μM in PNS media), 4 ± 0.2 mm; in assay [1] (hydraphile 50 μM in PNS media, listed as compound 3), 4±0.2 mm. Moreover, the “Decrease in primary root length” value was 39% in assay [1] (hydraphile 10 μM), 61% in assay [1] (hydraphile 20 μM) and 90% in assay [1] (hydraphile 50 μM). Besides, the “Effect on growth / root development” value in assay [1] (hydraphile 50 μM in PNS media) is listed as “inhibit the primary root development”.
For “(C12)2NCOCH2CH2CO-AAAPGGG-OC7 ({(C12)2NCOCH2CH2CO}-AAAPGGG-OC7; SMILES CCCCCCCCCCCCN(CCCCCCCCCCCC)C(=O)CCC(=O)N[C@@H](C)C(=O)N[C@@H](C)C(=O)N[C@@H](C)C(=O)N1CCC[C@H]1C(=O)NCC(=O)NCC(=O)NCC(=O)OCCCCCCC) [Compound 10]”, in assay [1] (SAT 50 μM in PNS), the Lateral root density is listed as 0.12, the “Number of lateral roots” value was determined as 3.4 and the Primary root length turned out to be 28.4 mm.
Regarding “(C12H25)2NCOCH2CH2CO-GGGPSGS-OC7H15 ({(C12H25)2NCOCH2CH2CO}-GGGPSGS-OC7H15; SMILES CCCCCCCCCCCCN(CCCCCCCCCCCC)C(=O)CCC(=O)NCC(=O)NCC(=O)NCC(=O)N1CCC[C@H]1C(=O)N[C@@H](CO)C(=O)NCC(=O)N[C@@H](CO)C(=O)OCCCCCCC) [Compound 15]”, in assay [1] (SAT 50 μM), the “Effect on number of lateral roots relative to control” value is given as “does not show such a dramatic effect”; the “Effect on primary root length relative to control” value is reported as “dramatic reduction in primary root length”; the “Overall effect on growth / root morphology relative to control” value is “shorter primary root and new lateral roots”. Moreover, in assay [1] (SAT 50 μM in PNS), the Lateral root density is 0.51 ± 0.03, the “Number of lateral roots” value is recorded as 4.5 ± 0.4 and the Primary root length came out at 9.0 ± 1.2 mm.
On to “[CH3(CH2)17]2NCOCH2OCH2CO-Gly-Gly-Gly-Pro-Gly-Gly-Gly-O(CH2)6CH3 ({(CH3(CH2)17)2NCOCH2OCH2CO}-GGGPGGG-{O(CH2)6CH3}; SMILES CCCCCCCCCCCCCCCCCCN(CCCCCCCCCCCCCCCCCC)C(=O)COCC(=O)NCC(=O)NCC(=O)NCC(=O)N1CCC[C@H]1C(=O)NCC(=O)NCC(=O)NCC(=O)OCCCCCCC) [Compound 9]”, for which, in assay [1] (SAT 50 μM), the “Effect on number of lateral roots relative to control” value is “within experimental error of the PNS control” and the “Effect on primary root length relative to control” value is listed as “within experimental error of the PNS control”. Moreover, in assay [1] (SAT 50 μM in PNS), the Lateral root density is 0.17 ± 0.02, the “Number of lateral roots” value amounted to 6.8 ± 1.3 and the Primary root length came out at 40.5 ± 3.4 mm.

These data come from patent US10548319B2, “Compositions and methods for synthetic amphiphile-induced changes in plant root morphology” (The Curators of the University of Missouri, priority 2014, dated 2020).
